Test results published in patent US11896571B2, “Methods for increasing oral osteogenesis using lipoxin A4 (LXA4) and its analogs” (Forsyth Dental Infirmary for Children, priority 2013, dated 2024).

Legend:
[1] = test system: periodontitis and inflammation-induced bone destruction; conditions: rabbit periodontitis; cited from earlier work
[2] = test system: periodontal disease and bone loss (intrabony defects around second and fourth premolars); assay: Minipig periodontal disease model: periodontal flap surgery with a single application, μCT and conventional radiographic imaging; format: in vivo, minipigs (Hanford)
Procedure: The Institutional Animal Care Committee at the Forsyth Institute and PARF, Inc reviewed and approved the animal protocol prior any study activities. Two adult (18-24 months old) female minipigs (Hanford) were purchased and acclimatized for at least 7 days before any procedures. All surgical and follow up procedures and housing throughout the study duration (about 6 months including disease induction period) were performed at an animal and surgical facility at PARF, Inc.
Anesthesia and surgical procedures were conducted as described in Hasturk H, Kantarci A, Ghattas M, Schmidt M, Giordano R, Ashman A, Diekwisch T, Van Dyke T E. The Use of Light/Chemically-Hardened Poly-Methyl-Methacrylate, Poly-Hydroxyl-Ethyl-Methacrylate and Calcium Hydroxide Graft Material in Combination with Polyanhydride around Implants in Minipigs: Part I: Immediate Stability and Function. J Periodontol. 2011 September; 82(9):1339-1352, which is incorporated by reference in its entirety herein. Briefly, minipigs were premedicated with Telazol (4-6 mg/kg IM) and xylazine (2.2 mg/kg IM) and were maintained by 3-4% isoflurane for induction and 0.5-2% isoflurane for maintenance. Each pig was anesthetized for approximately two hours during ligature placement and intraoral photographs. Endotracheal intubation was performed whenever the pig was fully anesthetized. Periodontal disease and bone loss were induced by creating intrabony defects using burs and ligatures in all four quadrants around the same teeth (second and fourth premolars) (FIG. 2A). After ligature placement, animals were fed with soft diet to stimulate plaque accumulation around ligatures for 6 weeks.
Oral examination, including digital photographs, were repeated at 2 and 4 weeks and ligatures were removed at 6 weeks. The sites were left untreated for about 38 days to stabilize the periodontal disease and bone loss obtained and to eliminate the self healing aspect of the bone defects. Accordingly, the defects were chronically created for the baseline treatments (FIG. 2B).
At Day 0 (baseline), the minipigs were anesthetized as described above. […]

[3] = test system: acute inflammation (PMN infiltration, pro-inflammatory cytokines); conditions: mouse model of acute inflammation, cited from earlier work

Compound | bone loss [1] | inflammation [1] | tissue regeneration [1] | number of applications after which oral osteogenesis effects were observed ([2]; applied to debrided chronic periodontal lesion at periodontal flap surgery) | bone regeneration by conventional radiographic imaging of teeth ([2]; surgery plus 9,12 benzo LXA4 vs surgery alone (FIG. 3)) | bone osteogenesis by micro-computed tomography (μCT) imaging of teeth ([2]; surgery plus 9,12 benzo LXA4 vs surgery alone, 0.1-1 μM, light gel, applied at flap surgery, bone covering root notches (FIG. 3)) | levels of pro-inflammatory cytokines ([3]; in vivo) | polymorphonuclear leukocyte (PMN) infiltration ([3]; in vivo) | anti-inflammatory properties [3]
CC[C@@H](O)/C=C/C=C\C[C@@H](O)/C=C/C=C/C=C\[C@@H](O)CCCC(=O)O [resolvin E1 (RVE1), resolvin E1] | protects from bone loss | reduces inflammation | stimulates tissue regeneration | – | – | – | – | – | –
9,12 benzo-LXA4 [9,12, benzo LXA4] | – | – | – | observed after only a single application | regenerated bone to essentially pre-disease levels | induction of bone osteogenesis following LXA4 treatment was observed | significantly reducing | significantly reducing | potent anti-inflammatory properties
